Source: ChEMBL document CHEMBL4130434, “Antineoplastic Agents. 604. The Path of Quinstatin Derivatives to Antibody Drug Conjugates” (2017)
*1 amine or outer side, *2 acyl side, *3 side chain or, on linkers, in order; H or OH if unused. Where a SMILES comes first, the peptide text is derived from it. [ ]: non-standard residue; d: D form. The star is where a group is joined. Dolaproine = CO[C@@H]([C@@H]1CCCN1)[C@@H](C)C(=O)O; Hexanoyl(6-maleimido) = O=C1C=CC(=O)N1CCCCCC(=O)*; Dil = CC[C@H](C)[C@H](NC)[C@@H](CC(=O)O)OC; PABC = O=C(OCc1ccc(N[*:1])cc1)[*:2]; Cit = NC(=O)NCCC[C@H](N)C(=O)O; NMeV = CN[C@H](C(=O)O)C(C)C; X1 = c1cnc2c(CCN*)cccc2c1; X2 = c1cc(CCN*)c2cccnc2c1; X3 = c1ccc2c(CCN*)ccnc2c1; X4 = c1ccc2nc(CCN*)ccc2c1

Columns and labels:
Assay type in all cases: functional
BXPC-3 = assay: Growth inhibition of human BxPC3 cells after 48 hrs by SRB assay; details: BXPC-3, 48 h
MCF7 = assay: Growth inhibition of human MCF7 cells after 48 hrs by SRB assay; details: MCF7, 48 h
SF-268 = assay: Growth inhibition of human SF268 cells after 48 hrs by SRB assay; details: SF-268, 48 h
NCI-H460 = assay: Growth inhibition of human NCI-H460 cells after 48 hrs by SRB assay; details: NCI-H460, 48 h
KM-20L2 = assay: Growth inhibition of human KM20L2 cells after 48 hrs by SRB assay; details: KM-20L2, 48 h
DU-145 = assay: Growth inhibition of human DU145 cells after 48 hrs by SRB assay; details: DU-145, 48 h

For `CC[C@H](C)[C@@H]([C@@H](CC(=O)N1CCC[C@H]1[C@H](OC)[C@@H](C)C(=O)NCCc1ccnc2ccccc12)OC)N(C)C(=O)[C@@H](NC(=O)[C@H](C(C)C)N(C)C(=O)OCc1ccc(NC(=O)[C@H](CCCNC(N)=O)NC(=O)[C@@H](NC(=O)CCCCCN2C(=O)C=CC2=O)C(C)C)cc1)C(C)C` ({Hexanoyl(6-maleimido)}-V[Cit][PABC][NMeV]V[Dil][Dolaproine]-X3), the GI50 (BXPC-3) was 1570 nM, the GI50 (MCF7) was 30.7 nM and the GI50 (SF-268) was 29.9 nM. It also gave a GI50 (NCI-H460) of 2620 nM, a GI50 (KM-20L2) of 38.9 nM and a GI50 (DU-145) of 31.4 nM.

In the case of `CC[C@H](C)[C@@H]([C@@H](CC(=O)N1CCC[C@H]1[C@H](OC)[C@@H](C)C(=O)N[C@@H](Cc1ccccc1)c1nccs1)OC)N(C)C(=O)[C@@H](NC(=O)[C@H](C(C)C)N(C)C)C(C)C` [DOLASTATIN-10], the GI50 (BXPC-3) is reported as 0.051 nM, the GI50 (MCF7) is reported as 0.005 nM and the GI50 (SF-268) is reported as 0.006 nM. It also gave a GI50 (NCI-H460) of 0.229 nM, a GI50 (KM-20L2) of 0.01 nM and a GI50 (DU-145) of 0.007 nM.

Work on `CC[C@H](C)[C@@H]([C@@H](CC(=O)N1CCC[C@H]1[C@H](OC)[C@@H](C)C(=O)NCCc1cccc2cccnc12)OC)N(C)C(=O)[C@@H](NC(=O)[C@@H](NC)C(C)C)C(C)C` (H-[NMeV]V[Dil][Dolaproine]-X1) yielded a GI50 (BXPC-3) of 11.5 nM, a GI50 (MCF7) of 0.06 nM and a GI50 (SF-268) of 0.06 nM. It also gave a GI50 (NCI-H460) of 14.9 nM, a GI50 (KM-20L2) of 0.203 nM and a GI50 (DU-145) of 0.07 nM.

`CC[C@H](C)[C@@H]([C@@H](CC(=O)N1CCC[C@H]1[C@H](OC)[C@@H](C)C(=O)NCCc1ccc2ccccc2n1)OC)N(C)C(=O)[C@@H](NC(=O)[C@@H](NC)C(C)C)C(C)C` (H-[NMeV]V[Dil][Dolaproine]-X4) gave a GI50 (BXPC-3) of 81.2 nM, a GI50 (MCF7) of 4.06 nM and a GI50 (SF-268) of 1.22 nM. The GI50 (NCI-H460) was 392 nM, the GI50 (KM-20L2) was 3.24 nM and the GI50 (DU-145) was 12.2 nM.

Compound `CC[C@H](C)[C@@H]([C@@H](CC(=O)N1CCC[C@H]1[C@H](OC)[C@@H](C)C(=O)NCCc1cccc2ncccc12)OC)N(C)C(=O)[C@@H](NC(=O)[C@H](C(C)C)N(C)C(=O)OCc1ccc(NC(=O)[C@H](CCCNC(N)=O)NC(=O)[C@@H](NC(=O)CCCCCN2C(=O)C=CC2=O)C(C)C)cc1)C(C)C` ({Hexanoyl(6-maleimido)}-V[Cit][PABC][NMeV]V[Dil][Dolaproine]-X2) has a GI50 (BXPC-3) of 299 nM, a GI50 (MCF7) of 5.23 nM and a GI50 (SF-268) of 2.99 nM. It also gave a GI50 (NCI-H460) of 247 nM, a GI50 (KM-20L2) of 11.2 nM and a GI50 (DU-145) of 4.49 nM.

Compound `CC[C@H](C)[C@@H]([C@@H](CC(=O)N1CCC[C@H]1[C@H](OC)[C@@H](C)C(=O)NCCc1cccc2cccnc12)OC)N(C)C(=O)[C@@H](NC(=O)[C@H](C(C)C)N(C)C(=O)OCc1ccc(NC(=O)[C@H](CCCNC(N)=O)NC(=O)[C@@H](NC(=O)CCCCCN2C(=O)C=CC2=O)C(C)C)cc1)C(C)C` ({Hexanoyl(6-maleimido)}-V[Cit][PABC][NMeV]V[Dil][Dolaproine]-X1) has a GI50 (BXPC-3) of 449 nM, a GI50 (MCF7) of 15 nM and a GI50 (SF-268) of 3.52 nM. It also gave a GI50 (NCI-H460) of 449 nM, a GI50 (KM-20L2) of 23.9 nM and a GI50 (DU-145) of 5.98 nM.

Compound `CC[C@H](C)[C@@H]([C@@H](CC(=O)N1CCC[C@H]1[C@H](OC)[C@@H](C)C(=O)NCCc1ccnc2ccccc12)OC)N(C)C(=O)[C@@H](NC(=O)[C@@H](NC)C(C)C)C(C)C` (H-[NMeV]V[Dil][Dolaproine]-X3) has a GI50 (BXPC-3) of 67.7 nM, a GI50 (MCF7) of 0.149 nM and a GI50 (SF-268) of 0.176 nM. For the same compound, the GI50 (NCI-H460) was 67.7 nM, the GI50 (KM-20L2) was 0.596 nM and the GI50 (DU-145) was 0.135 nM.

`CC[C@H](C)[C@@H]([C@@H](CC(=O)N1CCC[C@H]1[C@H](OC)[C@@H](C)C(=O)NCCc1cccc2ncccc12)OC)N(C)C(=O)[C@@H](NC(=O)[C@@H](NC)C(C)C)C(C)C` (H-[NMeV]V[Dil][Dolaproine]-X2) was tested, and the GI50 (BXPC-3) was 27.1 nM, the GI50 (MCF7) was 0.298 nM and the GI50 (SF-268) was 0.311 nM. The GI50 (NCI-H460) was 37.9 nM, the GI50 (KM-20L2) was 0.582 nM and the GI50 (DU-145) was 0.812 nM.
